The values that follow come from PMC8041284, “Tunable Methacrylamides for Covalent Ligand Directed Release Chemistry” (Journal of the American Chemical Society, 2021).

Structures are written as SMILES. Read-outs that look alike come from different tables or passages of the source.

This experiment has as its target BTK (Homo sapiens, UniProt Q06187). In words: biochemical.
Setting [1] is: read-out: BTK inhibition (%), 0.75 uM BTK, […] probe 3l, 15 min preincubation.

Sequence of BTK (Q06187 402-655 limits assumed): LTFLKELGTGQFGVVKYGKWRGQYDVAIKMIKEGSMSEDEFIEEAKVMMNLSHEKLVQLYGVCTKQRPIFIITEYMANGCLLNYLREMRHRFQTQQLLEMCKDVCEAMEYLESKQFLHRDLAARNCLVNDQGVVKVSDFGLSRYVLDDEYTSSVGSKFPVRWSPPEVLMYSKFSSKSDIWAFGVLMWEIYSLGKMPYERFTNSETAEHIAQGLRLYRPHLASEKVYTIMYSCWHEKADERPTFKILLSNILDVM

With `CN1CCN(c2nc(C3=C(c4c[nH]c5ccccc45)C(=O)NC3=O)c3ccccc3n2)CC1` [PCM-0095375], the inhibition at 10 µM under setting [1] worked out at 57.9%. In the case of `COC(=O)CCSCc1ccc(-c2onc(C)c2NC(=O)OC(C)c2ccccc2Cl)cc1` (stereo not shown) [PCM-0095376], under setting [1], the inhibition at 10 µM amounted to 20.2%. `O=c1[nH]c2ccc(Cl)cc2c(N[C@@H]2CN3CCC2CC3)c1-c1nc2ccccc2[nH]1` [PCM-0095378]: under setting [1], the inhibition at 10 µM is 0%. In the case of `CCc1c(O)cc(O)c(C(=O)c2ccc(OCCN3CCOCC3)c(OC)c2)c1CC(=O)N(CCOC)CCOC` [PCM-0095381], the inhibition at 10 µM under setting [1] came out at 2.3%.

As to `Fc1cc(-c2cccc3ncc(-c4cnn(C5CCNCC5)c4)nc23)cc(F)c1CN1CCOCC1` [PCM-0095382], the inhibition at 10 µM under setting [1] was 78.6%. The same measure, in the same setting: to `COc1ccc(F)c(F)c1C(=O)c1cnc(NC2CCN(S(C)(=O)=O)CC2)nc1N` [PCM-0095383] belongs -9.7%; to `c1cncc(CN2CCC(n3ncc4c(N5CCOCC5)nc(-c5ccc6[nH]ccc6c5)nc43)CC2)c1` [PCM-0095384], -27.6%. Same read-out and setting: to `O=C(c1ccc(F)cc1)N1CCC[C@H](c2nc(-c3ccc(F)cc3)no2)C1` [PCM-0095385] belongs -13.2%; to `Cc1cnc(Nc2ccc(N3CCN(C)CC3)cc2)nc1Nc1cccc(S(=O)(=O)NC(C)(C)C)c1` [PCM-0095386], 82.8%. Take `CC(C)OC(=O)C1=CN(C(=O)c2ccc(F)c(F)c2)CC(C)(C)c2c1[nH]c1ccccc21` [PCM-0095387]: the inhibition at 10 µM under setting [1] was 3.4%. As to `CCCCOc1ccc(C(=O)Nc2ccc(F)cc2F)cc1` [PCM-0095388], the inhibition at 10 µM under setting [1] is -5.4%.

Regarding `C[C@H](NC(=O)/C(C#N)=C/c1cccc(Br)n1)c1ccccc1` [PCM-0095390], under setting [1], the inhibition at 10 µM is 12.4%. Turning to `CC1(C)CC(O)CC(C)(C)N1[O]` [PCM-0095391], the inhibition at 10 µM (read-out: BTK inhibition (%)) amounted to 10.3%.

`NC(=O)N1CCC(CC(=O)N2CCC([C@H]3c4ncc(Br)cc4CCc4cc(Cl)cc(Br)c43)CC2)CC1` [PCM-0095392]: the inhibition at 10 µM under setting [1] was found to be 32.7%. The same measure, in the same setting: to `COc1ccc2c(c1)c(C1=C(c3c[nH]c4ccccc34)C(=O)NC1=O)cn2CCCN(C)C` [PCM-0095393] belongs 24.8%; to `c1ccc(NCc2ccc(CNc3ccccn3)cc2)nc1` [PCM-0095395], -4.8%; to `COc1cc(CCc2cc(NC(=O)c3ccc(N4C[C@@H](C)N[C@@H](C)C4)cc3)n[nH]2)cc(OC)c1` [PCM-0095396], 58.6%. As for `Cc1cc(C)c(Nc2ccnc(Nc3ccc(C#N)cc3)n2)c(C)c1` [PCM-0095398], the inhibition at 10 µM under setting [1] was found to be 7%. For `C[C@]12CC[C@H](O)CC1=CC[C@@H]1[C@@H]2CC[C@]2(C)C(n3cnc4ccccc43)=CC[C@@H]12` [PCM-0095399], the inhibition at 10 µM under setting [1] was determined as 0%.

Take `CC(NC(=O)c1ccccc1N=Cc1c(O)ccc2ccccc12)c1ccccc1` (stereo not shown) [PCM-0095400]: the inhibition at 10 µM under setting [1] worked out at 9%. Take `CCCC(=O)Nc1cccc(NC(=O)c2ccccc2Br)c1` [PCM-0095401]: the inhibition at 10 µM under setting [1] turned out to be 19.5%.

Turning to `c1ccc(-c2[nH]ncc2-c2ccnc3ccccc23)nc1` [PCM-0095402], the inhibition at 10 µM under setting [1] was 14.5%. The same measure, in the same setting: to `CC(C)c1ccc(NC(=O)Cn2cnc3c2c(=O)n(C)c(=O)n3C)cc1` [PCM-0095403] belongs -12.5%; to `CN1CCN(c2cccc(Nc3nc4c(-c5ccc(S(C)(=O)=O)cc5)cccn4n3)c2)CC1` [PCM-0095404], 41.4%; to `O=C(O)CNC(=O)c1c(O)c2ccccc2n(Cc2ccccc2)c1=O` [PCM-0095405], -23.3%. In the case of `Cc1c(CN2CCN(C(=O)[C@H](C)O)CC2)sc2c(N3CCOCC3)nc(-c3cnc(N)nc3)nc12` [PCM-0095406], the inhibition at 10 µM under setting [1] was 75.2%. Take `N#Cc1c(O)c2c(-c3ccc(-c4ccccc4O)cc3)csc2[nH]c1=O` [PCM-0095407]: the inhibition at 10 µM under setting [1] worked out at 51.7%. As to `CS(=O)(=O)N1CCc2c(-c3cnc(N)nc3)nc(N3CCOCC3)nc21` [PCM-0095409], under setting [1], the inhibition at 10 µM was -5.5%. As for `O=C(Cc1ccc(-c2ccc(OCCN3CCOCC3)cc2)cn1)NCc1ccccc1` [PCM-0095410], the inhibition at 10 µM under setting [1] was -2.8%. Consider `CNC(=O)c1c(F)cccc1Nc1nc(Nc2cc3c(cc2OC)CCN3C(=O)CN(C)C)nc2[nH]ccc12` [PCM-0095412], for which the inhibition at 10 µM under setting [1] was 13.8%. On to `c1ccc(-c2nn3c(c2-c2ccnc4cc(OCCN5CCOCC5)ccc24)CCC3)nc1` [PCM-0095413], for which, under setting [1], the inhibition at 10 µM is -24.7%. Still for that read-out and setting: to `C[C@H](NC(=O)Cc1cc(F)cc(F)c1)C(=O)N[C@@H]1C(=O)N(C)c2ccccc2-c2ccccc21` [PCM-0095414] belongs 4.8%; to `Cc1ccccc1C(=O)Nc1ccc(C(=O)N2CCCC(O)c3cc(Cl)ccc32)c(C)c1` (stereo not shown) [PCM-0095415], 4.7%; to `COC1=C2C[C@@H](C)C[C@H](OC)[C@H](O)[C@@H](C)/C=C(\C)[C@H](OC(N)=O)[C@@H](OC)/C=C\C=C(/C)C(=O)NC(=CC1=O)C2=O` [PCM-0095416], 0%. Turning to `C[C@H](NC(=O)[C@@H](O)c1cc(F)cc(F)c1)C(=O)N[C@@H]1C(=O)N(C)c2ccccc2-c2ccccc21` [PCM-0095417], the inhibition at 10 µM under setting [1] is 6.2%. As for `CC(C)(C)c1nc(-c2cccc(NS(=O)(=O)c3c(F)cccc3F)c2F)c(-c2ccnc(N)n2)s1` [PCM-0095418], the inhibition at 10 µM under setting [1] came out at 39.3%. On to `CC(C)NC[C@@H](C(=O)N1CCN(c2ncnc3c2[C@H](C)C[C@H]3O)CC1)c1ccc(Cl)cc1` [PCM-0095420], for which the inhibition at 10 µM under setting [1] was -4.1%. Regarding `Cc1ccc(-c2c(-c3nn(C)c4ncnc(N5CC[C@H](N6CCCCC6)C5)c34)cnn2C)cc1` [PCM-0095421], the inhibition at 10 µM under setting [1] is -2.3%. For `C#Cc1cccc(Nc2ncnc3cc4c(cc23)OCCOCCOCCO4)c1` [PCM-0095422], under setting [1], the inhibition at 10 µM was -16.6%. The same measure, in the same setting: to `CC(C)n1nc(-c2ccc3oc(N)nc3c2)c2c(N)ncnc21` [PCM-0095423] belongs -6.2%; to `Cc1cc(C)c2c(c1)[C@@H](N(Cc1cc(C(F)(F)F)cc(C(F)(F)F)c1)c1nnn(C)n1)CCCN2CC1CCC(C(=O)O)CC1` (stereo partly shown) [PCM-0095426], 16.3%; to `Cc1nc(NC(=O)N2CCC[C@H]2C(N)=O)sc1-c1ccnc(C(C)(C)C(F)(F)F)c1` [PCM-0095427], -7.6%. With `Cn1sc(=O)n(Cc2ccccc2)c1=O` [PCM-0095428], the inhibition at 10 µM under setting [1] was determined as 4.8%. As for `O=C1C(=O)N(Cc2ccc(Cl)c(Cl)c2)c2ccccc21` [PCM-0095429], the inhibition at 10 µM under setting [1] turned out to be 9.3%. As to `Nc1ccc(-c2ccc3ncc4ccc(=O)n(-c5cccc(C(F)(F)F)c5)c4c3c2)cn1` [PCM-0095430], under setting [1], the inhibition at 10 µM was determined as 9.7%. In the case of `CC(=O)Nc1ccc(C(=O)Nc2ccccc2N)cc1` [PCM-0095432], under setting [1], the inhibition at 10 µM was -17.1%. With `Cc1ccc(C(=O)Cn2c3c(sc2=N)CCCC3)cc1` [PCM-0095433], under setting [1], the inhibition at 10 µM is -11.7%. For `CCS(=O)(=O)c1cccc(-c2cc(C(=O)NC3CCN(C)CC3)c(C)c3[nH]c4ncc(C)cc4c23)c1` [PCM-0095437], under setting [1], the inhibition at 10 µM was determined as 93.1%. The same measure, in the same setting: to `Cc1csc(-c2nnc(Nc3ccc(Oc4ncccc4-c4ccnc(N)n4)cc3)c3ccccc23)c1` [PCM-0095438] belongs 97.9%; to `CCc1ccc(OCc2ccccc2C(=O)Nc2ccc3nc(C)cc(N)c3c2)cc1` [PCM-0095441], 33.5%. The same measure, in the same setting: to `CNC(=O)c1ccc(C)c(-n2c(C)cc(OCc3ccc(F)cc3F)c(Br)c2=O)c1` [PCM-0095443] belongs -14.5%; to `COc1cc2ncnc(Nc3ccc(F)c(Cl)c3)c2cc1NC(=O)/C=C/CN1CCCCC1` [PCM-0095444], 18.6%.

As for `Cc1c(C(=O)NN2CCCCC2)nn(-c2ccc(Cl)cc2Cl)c1-c1ccc(I)cc1` [PCM-0095445], the inhibition at 10 µM under setting [1] worked out at 34.2%. Same read-out and setting: to `CN1c2cc(O)c(N=NC(N)=O)cc2CC1S(=O)(=O)O` (stereo not shown) [PCM-0095446] belongs -10.9%; to `CNC(=O)c1ccccc1Nc1nc(Nc2ccc(N3CCOCC3)cc2OC)ncc1Cl` [PCM-0095447], 67.6%.

With `O=C(NC[C@H]1CN(c2ccc(N3CCOCC3=O)cc2)C(=O)O1)c1ccc(Cl)s1` [PCM-0095448], the inhibition at 10 µM under setting [1] came out at 4.7%. As to `O=C(O)C(Cc1c[nH]c2ccccc12)N1C(=O)c2ccccc2C1=O` (stereo not shown) [PCM-0095449], the inhibition at 10 µM under setting [1] was found to be 7.6%. As for `O=c1sn(-c2cccc3ccccc23)c(=O)n1Cc1ccccc1` [PCM-0095450], under setting [1], the inhibition at 10 µM is -12.4%. Regarding `CC(=O)N[C@H]1[C@H]([C@H](O)[C@H](O)CO)OC(C(=O)O)=C[C@@H]1N=C(N)N` [PCM-0095451], the inhibition at 10 µM under setting [1] is -4.3%. In the case of `NC(=O)Nc1sc(-c2ccc(F)cc2)cc1C(N)=O` [PCM-0095452], under setting [1], the inhibition at 10 µM amounted to 96.6%.

Consider `CC(C(=O)O)c1ccc2c(c1)CC(=O)c1ccccc1S2` (stereo not shown) [PCM-0095453], for which, under setting [1], the inhibition at 10 µM was -15.9%.

For `COc1ccc(CNCc2cccc3ccccc23)cc1` [PCM-0095454], the inhibition at 10 µM under setting [1] is -19.5%. The same measure, in the same setting: to `CCC(=O)N1CCN(c2ccc(-n3c(=O)ccc4cnc5ccc(-c6cnc7ccccc7c6)cc5c43)cc2C(F)(F)F)CC1` [PCM-0095455] belongs -25.5%.

`c1cc(CN2CCCNCCNCCCNCC2)ccc1CN1CCCNCCNCCCNCC1` [PCM-0095456]: under setting [1], the inhibition at 10 µM was 6.8%. As to `CNC(=O)c1ccc(N2C(=S)N(c3cnc(C#N)c(C(F)(F)F)c3)C(=O)C23CCC3)cc1F` [PCM-0095458], the inhibition at 10 µM under setting [1] is -3.1%. Take `CC1(COc2ccc3c(c2)ncn3-c2ccc3cccc(N4CCC(N)CC4)c3n2)COC1` [PCM-0095459]: the inhibition at 10 µM under setting [1] is 6.2%. On the same count and under the same terms, to `COc1cc(OC2CCN(C)CC2)ccc1Nc1ncc2c(n1)n(C1CCCC1)c(=O)n2C` [PCM-0095460] belongs -15.2%; to `Cn1c(=O)c(F)c(Nc2ccc(I)cc2F)c2c(=O)n(C[C@@H](O)CO)cnc21` [PCM-0095463], 7.6%; to `CCn1cc(-c2ccnc3[nH]c(-c4cccc(CN(C)C)c4)cc23)c(-c2ccc(NC(=O)N(C)C)cc2)n1` [PCM-0095464], 48.3%.

With `COc1cccc(Nc2c(C(N)=O)cnc3c(C)cc(S(=O)(=O)c4cccc(C(=O)N(C)C)c4)cc23)c1` [PCM-0095466], the inhibition at 10 µM under setting [1] stood at 0%.
